Laboratory results reported in patent publication US8143308B2, “Synthesis of oligo/poly(catechins) and methods of use” (University of Massachusetts Lowell, priority 2005, dated 2012).

What was measured:
[1] = Stability of activity after dissolving in solvent
[2] = system: MCF-7 (HTB-22, low metastatic breast adenocarcinoma) cells; assay: Cell proliferation assay, MCF-7 low metastatic breast adenocarcinoma cells; type: cell-based, human; details: another experiment; only at high doses effective
[3] = system: MCF12A (CRL#10782, normal mammary epithelial) cells; assay: Cell proliferation assay, MCF12A normal mammary epithelial cells; details: another experiment
[4] = system: MCF-7 and MDA-MB-231 cells; assay: Anticancer activity in vitro, summary statements for breast cancer cells; type: cell-based, human; details: MCF-7 and MDA-MB-231 in vitro

Which results are given for (−)-epigallocatechin gallate [EGCG]?
time to loss of activity [1]: ≤ 1 h; dose at which effective on MCF-7 [2]: 9.2 µg/mL; inhibition of normal MCF-12A cells (in words) ([3]; 5.0 μg/ml): inhibited; inhibition of normal MCF-12A cells (in words) ([3]; 40 μg/ml): inhibited; dose at which active / effective [4]: 1 to 40 µg/mL
